The results in this text go back to patent publication US6500853B1, “Inhibitors of phospholipase enzymes” (Genetics Institute, LLC, priority 1998, dated 2002).

Where two headings read alike, the source gives them in different places.

This test addresses T1, cPLA2 (Homo sapiens, UniProt P47712).
T1 sequence (P47712 1-749): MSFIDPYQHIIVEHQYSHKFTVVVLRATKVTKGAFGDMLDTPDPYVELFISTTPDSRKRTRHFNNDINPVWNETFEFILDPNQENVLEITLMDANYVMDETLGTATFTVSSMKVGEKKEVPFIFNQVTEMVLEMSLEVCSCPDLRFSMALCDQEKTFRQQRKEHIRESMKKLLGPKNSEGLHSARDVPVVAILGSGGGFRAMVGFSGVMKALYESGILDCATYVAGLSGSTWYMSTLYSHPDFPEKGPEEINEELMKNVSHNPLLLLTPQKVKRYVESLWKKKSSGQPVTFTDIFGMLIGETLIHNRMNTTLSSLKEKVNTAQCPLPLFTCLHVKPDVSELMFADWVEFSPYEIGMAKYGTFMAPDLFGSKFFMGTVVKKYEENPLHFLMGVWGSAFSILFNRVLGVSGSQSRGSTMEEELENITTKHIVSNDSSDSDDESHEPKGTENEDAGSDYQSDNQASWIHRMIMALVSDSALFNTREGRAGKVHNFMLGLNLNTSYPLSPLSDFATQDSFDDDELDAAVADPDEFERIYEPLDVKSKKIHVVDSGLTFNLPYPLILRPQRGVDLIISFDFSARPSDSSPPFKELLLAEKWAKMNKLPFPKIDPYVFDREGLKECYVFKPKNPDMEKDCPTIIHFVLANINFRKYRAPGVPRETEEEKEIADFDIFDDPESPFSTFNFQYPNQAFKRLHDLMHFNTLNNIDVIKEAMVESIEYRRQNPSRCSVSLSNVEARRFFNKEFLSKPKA
Description: Coumarin Assay (cPLA2 inhibition). The class given is biochemical. The following applies: for inhibition at 48 µM: CONCENTRATION 48 micromolar. The gist of the method:
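Percent inhibition at the stated concentration, from the rate of 460 nm emission rise (360 nm excitation) per minute. Reaction started by adding 4 μg enzyme to compound and 60 μM 7-hydroxycoumarinyl 6-heptenoate in Hepes buffer pH 7.5 with 1 mM EDTA.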

In general, inhibition refers to the percentage by which the read-out fell short of the control. Take `O=C(Nc1cc(C(=O)O)cc(C(=O)O)c1)C(=O)c1cn(Cc2ccc(C(F)(F)F)cc2C(F)(F)F)c2ccc(OCc3ccccc3)cc12` [Example 72, 5-[(2-{5-(benzyloxy)-1-[2,4-bis(trifluoromethyl)benzyl]-1H-indol-3-yl}-2-oxoacetyl)amino]isophthalic acid]: where the note is “CONCENTRATION 12.5 micromolar, read-out: PERCENT INHIBITION @”, the inhibition at 12.5 µM is 50%.

Consider `COc1cc(C(=O)O)ccc1Cc1cn(C(c2ccccc2)c2ccccc2N2CCOCC2)c2cc(Cl)ccc12` (centres unmarked) [Example 135, ′4-({6-chloro-1-[(2-morpholinophenyl)(phenyl)methyl]-1H-indol-3-yl}methyl)-3-methoxybenzoic acid], for which the “PERCENT INHIBITION @” value (CONCENTRATION 0.7 micromolar) is listed as 50%.

For the compound `O=C(Nc1cccc(C(=O)O)c1)C(=O)c1cn(Cc2ccc(Cc3ccccc3)cc2)c2ccc(OCc3ccccc3)cc12` [Example 71, 3-({2-[1-(4-benzylbenzyl)-5-(benzyloxy)-1H-indol-3-yl]-2-oxoacetyl}amino)benzoic acid], under “CONCENTRATION 1.5 micromolar, read-out: PERCENT INHIBITION @”, the inhibition at 1.5 µM amounted to 50%. Moreover, the inhibition at 3.5 µM (CONCENTRATION 3.5 micromolar, read-out: PERCENT INHIBITION @) was 50%. In addition, the inhibition at 3.8 µM (CONCENTRATION 3.8 micromolar, read-out: PERCENT INHIBITION @) came to 50%. For the same compound, the inhibition at 6 µM (CONCENTRATION 6 micromolar, read-out: PERCENT INHIBITION @) came to 69%.

With `COc1ccc2c(c1)c(CCS(=O)(=O)c1ccc(C(=O)O)cc1)c(C)n2C(c1ccccc1)c1ccccc1` [Example 144, 4-{[2-(1-benzhydryl-5-methoxy-2-methyl-1H-indol-3-yl)ethyl]sulfonyl}benzoic acid], the inhibition at 12 µM (Conc 12 uM, read-out: % Inhibition) came to 50%.

For `O=C(O)CCc1cn(CCCOc2cccc(Cc3ccccc3)c2)c2ccccc12` [Example 83, 3-{1-[3-(3-benzylphenoxy)propyl]-1H-indol-3-yl}propanoic acid], the inhibition at 48 µM (read-out: PERCENT INHIBITION @) was determined as 50%. Under “CONCENTRATION 70 micromolar, read-out: PERCENT INHIBITION @”, the inhibition at 70 µM worked out at 50%.

With `Cc1c(CCS(=O)(=O)c2ccc(C(=O)O)cc2)c2c(Cl)c(Cl)ccc2n1C(c1ccccc1)c1ccccc1` [Example 141, 4-{[2-(1-benzhydryl-4,5-dichloro-2-methyl-1H-indol-3-yl)ethyl]sulfonyl}benzoic acid], the inhibition at 1.4 µM (Conc 1.4 uM, read-out: % Inhibition) came to 50%.

Take `COc1cc(Cc2cn(C(c3ccccc3)c3ccccc3)c3cc(Cl)ccc23)ccc1OCC(=O)O` [Example 121, 2-{4-[(1-benzhydryl-6-chloro-1H-indol-3-yl)methyl]-2-methoxyphenoxy}acetic acid]: the inhibition at 1.6 µM (CONCENTRATION 1.6 micromolar, read-out: PERCENT INHIBITION @) worked out at 20%.

What is called % Inhibition is the percentage by which the read-out fell short of the control. A higher % Inhibition goes with strong suppression. Take “3-{4-[2-(1-benzhydryl-5-chloro-2-{[(2,6-difluorobenzyl)oxy]methyl}-1H-indol-3-yl)ethoxy]phenyl}propanoic acid [Example 166]”: under “Conc 0.31 uM”, the “% Inhibition” value was 58%.

For the compound `Cc1c(CCS(=O)(=O)c2ccc(C(=O)O)cc2)c2ccccc2n1C(c1ccccc1)c1ccccc1` [Example 143, 4-{[2-(1-benzhydryl-2-methyl-1H-indol-3-yl)ethyl]sulfonyl}benzoic acid], the inhibition at 3 µM (Conc 3 uM, read-out: % Inhibition) was 50%.

With `Cc1c(CCS(=O)(=O)c2ccc(CCC(=O)O)cc2)c2cc(Cl)ccc2n1C(c1ccccc1)c1ccccc1` [Example 169, 3-(4-{[2-(1-Benzhydryl-5-chloro-2-methyl-1H-indol-3-yl)ethyl]sulfonyl}phenyl)propanoic acid], the inhibition at 0.45 µM (Conc 0.45 uM, read-out: % Inhibition) stood at 50%.

As to `COc1cc(C(=O)O)ccc1Cc1cn(C(c2ccccc2)c2ccccc2)c2ccc(S(C)(=O)=O)cc12` [Example 18, 4-{[l-benzhydryl-5-(methylsulfonyl)-1H-indol-3-yl]methyl}-3-methoxybenzoic acid], the “PERCENT INHIBITION @” value amounted to 50% (CONCENTRATION 1.2 micromolar), 50% (CONCENTRATION 1.3 micromolar), 50% (CONCENTRATION 1.9 micromolar) and 50% (CONCENTRATION 2 micromolar).

For the compound `COc1cc(C(=O)NS(=O)(=O)c2ccccc2C)ccc1Cc1cn(C2CCCC2)c2ccc(NC(=O)OC3CCCC3)cc12` [Example 25, Cyclopentyl N-{1-cyclopentyl-3-[2-methoxy-4-({[(2-methylphenyl)sulfonyl]amino}carbonyl)benzyl]-1H-indol-5-yl}carbamate], the inhibition at 13 µM (CONCENTRATION 13 micromolar, read-out: PERCENT INHIBITION @) was 50%. The inhibition at 17 µM (CONCENTRATION 17 micromolar, read-out: PERCENT INHIBITION @) worked out at 50%.

Take `Cc1c(CCOc2ccc(C(=O)O)cc2)c2cc(Br)ccc2n1C(c1ccccc1)c1ccccc1` [Example 145, 4-[2-(1-benzhydryl-5-bromo-2-methyl-1H-indol-3-yl)ethoxy]benzoic acid]: the inhibition at 2.6 µM (Conc 2.6 uM) came to 50%.

With `COc1cc(C(=O)NS(=O)(=O)Cc2ccccc2)ccc1Cc1cn(C(c2ccccc2)c2ccccc2)c2ccc(NC(=O)OC3CCCC3)cc12` [Example 31, cyclopentyl N-[1-benzhydryl-3-(4-{[(benzylsulfonyl)amino]carbonyl}-2-methoxybenzyl)-1H-indol-5-yl]carbamate], the inhibition at 11 µM (CONCENTRATION 11 micromolar, read-out: PERCENT INHIBITION @) turned out to be 50%. The inhibition at 18 µM (CONCENTRATION 18 micromolar, read-out: PERCENT INHIBITION @) is 50%.

Take `CS(=O)(=O)Cc1c(CCOc2ccc(C(=O)O)cc2)c2cc(Cl)ccc2n1C(c1ccccc1)c1ccccc1` [Example 154, 4-(2-{1-benzhydryl-5-chloro-2-[(methylsulfonyl)methyl]-1H-indol-3-yl}ethoxy)benzoic acid]: where the note is “Conc 5.5 uM, read-out: % Inhibition”, the inhibition at 5.5 µM came to 50%.

`O=C(O)COc1ccc(Cc2cn(C(c3ccccc3)c3ccccc3)c3cc(Cl)ccc23)c(Cl)c1` [Example 120, 2-{4-[(1-benzhydryl-6-chloro-1H-indol-3-yl)methyl]-3-chlorophenoxy}acetic acid]: the inhibition at 1 µM (CONCENTRATION 1 micromolar, read-out: PERCENT INHIBITION @) was found to be 50%.

Turning to `Cc1c(CCS(=O)(=O)c2ccc(C(=O)O)cc2)c2cc(F)ccc2n1C(c1ccccc1)c1ccccc1` [Example 139, 4-{[2-(1-benzhydryl-5-fluoro-2-methyl-1H-indol-3-yl)ethyl]sulfonyl}benzoic acid], for the setting “Conc 1.6 uM, read-out: % Inhibition”, the inhibition at 1.6 µM worked out at 50%.

Consider `O=C(O)c1ccc(OCCc2c(COCc3ccccn3)n(C(c3ccccc3)c3ccccc3)c3ccc(Cl)cc23)cc1` [Example 158, 4-(2-{1-benzhydryl-5-chloro-2-[(2-pyridinylmethoxy)methyl]-1H-indol-3-yl}ethoxy)benzoic acid], for which the inhibition at 1.7 µM (Conc 1.7 uM) is 50%.

Take `O=C(O)C1CC1Cc1cn(C(c2ccc(O)cc2)c2ccc(O)cc2)c2cc(Cl)ccc12` (centres unmarked) [Example 129, 2-({1-[bis(4-hydroxyphenyl)methyl]-6-chloro-1H-indol-3-yl}methyl)cyclopropanecarboxylic acid]: under “CONCENTRATION 1.1 micromolar, read-out: PERCENT INHIBITION @”, the inhibition at 1.1 µM is 50%.

Consider `O=C(O)Cc1cn(CC2CC2)c2ccc(-c3cccc(C(F)(F)F)c3)cc12` [Example 79, 2-{1-(cyclopropylmethyl)-5-[3-(trifluoromethyl)phenyl]-1H-indol-3-yl}acetic acid], for which the inhibition at 60 µM (CONCENTRATION 60 micromolar, read-out: PERCENT INHIBITION @) amounted to 50%. In addition, the inhibition at 65 µM (CONCENTRATION 65 micromolar, read-out: PERCENT INHIBITION @) was determined as 50%.

For `Cc1c(C(=O)Nc2cc(C(=O)O)cc(C(=O)O)c2)c2cc(OCc3ccccc3)ccc2n1Cc1ccc(C(F)(F)F)cc1C(F)(F)F` [Example 108, 5-[({5-(benzyloxy)-1-[2,4-bis(trifluoromethyl)benzyl]-2-methyl-1H-indol-3-yl}carbonyl)amino]isophthalic acid], the inhibition at 6.25 µM (CONCENTRATION 6.25 micromolar, read-out: PERCENT INHIBITION @) was determined as 67%. Also, the inhibition at 20 µM (CONCENTRATION 20 micromolar, read-out: PERCENT INHIBITION @) was determined as 15%. For the same compound, the inhibition at 48 µM (read-out: PERCENT INHIBITION @) stood at 50%. The inhibition at 50 µM (CONCENTRATION 50 micromolar, read-out: PERCENT INHIBITION @) stood at 46%.

As for `Cc1c(CCS(=O)(=O)c2ccc(C(=O)O)cc2)c2cc(Cl)c(Cl)cc2n1C(c1ccccc1)c1ccccc1` [Example 142], the “% Inhibition” value (Conc 1.4 uM) is on record as 50%.
